The record followed here is US11926640B2, “Prodrugs of glutamine analogs” (THE JOHNS HOPKINS UNIVERSITY, priority 2015, dated 2024).

Data set [1] is described as follows: in vitro metabolic stability in human plasma. The conditions noted are these: for PLASMA STABILITY Human: prodrug remaining within the 60 min incubation time; for stability in human plasma (in words): 30 min and 60 min.
The nature of data set [2]: in vitro metabolic stability in monkey plasma. The conditions noted are these: for PLASMA STABILITY Monkey: prodrug remaining within the 60 min incubation time; for stability in monkey plasma (in words): 30 min and 60 min.
A short description of data set [3]: in vitro metabolic stability in mouse plasma. The note with it: for PLASMA STABILITY Mouse: prodrug remaining within the 60 min incubation time; for stability in mouse plasma (in words): 30 min and 60 min.
Data set [4] in a line: chemical stability (cyclization to diazo-imine, acidic pH). Type of data set: physicochemical. The text has this: Chemistry. Scheme 9 outlines the synthesis and characterization of the ester based prodrugs 20 and 3 of DON and their subsequent cyclization to novel diazo-imines 9a-b. The pyroglutamate esters 6a-b (D'Andrea, et al., 2008) were FMOC-protected to afford compounds 18 and 1. Formation of the diazoketones 19 and 2 was accomplished using TMS diazomethane in good yield. Rapid deprotection with piperidine afforded the ester based prodrugs 20 and 3. Unexpectedly […] cyclization was observed even under mild conditions (e.g. stirring in chloroform at room temperature) affording the novel diazo-imines 9a and 9b. It is believed that this is the first example of this functional group being described in the chemical literature.

Data set [5] in a line: 5-day i.v. toxicity comparison of DON and 38 in pigs. The note with it: at equivalent PBMC exposures. The format is in vivo.
Data set [6] in a line: in vitro liver microsomal stability, pig. The conditions noted are these: pig microsomes.
Data set [7] can be described thus: in vitro liver microsomal stability, human. The conditions noted are these: human microsomes.
Data set [8] in a line: in vitro metabolic stability in pig plasma. The note with it: 30 min and 60 min.
The nature of data set [9]: in vitro metabolic stability in dog plasma. Type of data set: in vitro ADME. The conditions noted are these: 30 min and 60 min. As for the experimental part:
Percentage remaining was calculated in the following manner.

A short description of data set [10]: DON release in mouse plasma after oral administration of prodrugs. Type of data set: in vivo. The note with it: mice, p.o., 30 minutes and 5 hours after dosing, compared to DON. As for the experimental part:
Procedure for Pharmacokinetic analysis for DON release from its prodrugs: DON is extracted from samples (50 μL) with 250 μL methanol containing Glutamate-d5 (10 μM ISTD) by vortexing in low retention tubes. Samples are centrifuged at 16,000×g for 5 minutes to precipitate proteins. Supernatants (200 μL) are moved to new tube and dried at 45° C. under vacuum (approximately 1 hour). To each tube, 50 μL of 0.2 M sodium bicarbonate buffer (pH 9.0) and 100 μL dabsyl chloride stock is added. After vortexing, samples are incubated at 60° C. for 15 minutes to derivatize.

A short description of data set [11]: plasma and CSF pharmacokinetics of DON in swine after i.v. infusion. The format is in vivo, Göttingen×Yucutan miniature swine. The conditions noted are these: 60 min post-administration. As for the experimental part: Compound: Compound 47 was dissolved in a sterile saline containing 5% ethanol and 5% Tween 80 on the date of administration.
Swine: Swine studies were conducted under a protocol approved by the Johns Hopkins Animal Care and Use Committee. Adult, female Göttingen×Yucutan miniature swine (Massachusetts General Hospital, MA) were housed in Johns Hopkins University facilities accredited by the Association for Assessment and Accreditation of Laboratory Animal Care International in compliance with the Animal Welfare Act, Animal Welfare Regulations, and the Public Health Service Policy on the Humane Care and Use of Laboratory Animals. Animals were maintained on a 14-h light and 10-h dark schedule, provided ad libitum water and a commercial miniswine diet (Teklad, Madison, WI) with environmental enrichment (fruit/vegetables) twice daily.

A further data set deals with MC38 colon cancer. Description: MC38 tumor model. Type of data set: in vivo, mice. The conditions noted are these: single agent.

Entries after “also recorded” stand apart in the source; their conditions may differ. Structures can show the parent of a compound that is named as a salt.

`CCOC(=O)[C@H](CCC(=O)C=[N+]=[N-])NC(=O)OC(C)OC(=O)C(C)(C)C` (mixture of isomers) [Compound 32, Ethyl 6-diazo-2-(((1-(pivaloyloxy)ethoxy)carbonyl)amino)-5-oxohexanoate]: the “PLASMA STABILITY Human” value in data set [1] stood at 88%. The “PLASMA STABILITY Monkey” value in data set [2] was found to be 75%. Besides, the “PLASMA STABILITY Mouse” value in data set [3] is 0%.

Regarding `CC(C)OC(=O)[C@@H]1CCC(C=[N+]=[N-])=N1` (stereo in doubt) [Compound 9b, Isopropyl 5-(diazomethyl)-3,4-dihydro-2H-pyrrole-2-carboxylate], the “chemical stability (in words)” value in [4] is “chemically stable even at acidic pH”.

Consider `CC(C)OC(=O)[C@H](CCC(=O)C=[N+]=[N-])NC(=O)[C@@H](N)Cc1c[nH]c2ccccc12` (stereo in doubt) [Compound 38, Isopropyl 2-(2-amino-3-(1H-indol-3-yl)propanamido)-6-diazo-5-oxohexanoate], for which, in data set [1], the “PLASMA STABILITY Human” value came to 30%. In addition, the “DON delivered to GI tissues (in words)” value in [5] is reported as “less DON to GI tissues”. In [2], the “PLASMA STABILITY Monkey” value worked out at 10%. Moreover, the “liver microsomal stability (in words)” value in data set [6] and in data set [7] was “moderate-high stability” each time. Also, in data set [3], the “PLASMA STABILITY Mouse” value amounted to 0%.

Consider `CC(C)OC(=O)C(N)CCC(=O)C=[N+]=[N-]` (centres unmarked) [Compound 3, Isopropyl 2-amino-6-diazo-5-oxohexanoate], for which, in data set [4], the “chemical stability (in words)” value is recorded as “chemical instability; also recorded: unstable”.

In the case of `CC(C)OC(=O)[C@H](CCC(=O)C=[N+]=[N-])NP(=O)(Oc1ccccc1)Oc1ccccc1` [Compound 4, Isopropyl 6-diazo-2-((diphenoxyphosphoryl)amino)-5-oxohexanoate], in [1], the “stability in human plasma (in words)” value was “stable”. Moreover, the “stability in pig plasma (in words)” value in [8] was “stable”. Besides, the “stability in monkey plasma (in words)” value in data set [2] is given as “stable”. For the same molecule, in data set [3], the “stability in mouse plasma (in words)” value is on record as “unstable”.

For `CC(C)OC(=O)C(CCC(=O)C=[N+]=[N-])NP(=O)(NC(CCC(=O)C=[N+]=[N-])C(=O)OC(C)C)Oc1ccccc1` (centres unmarked) [Compound 7, 1-methylethyl 2,6-bis[4-(1λ^5-diazynylidene)-3-oxobutyl]-9-methyl-7-oxo-4-phenoxy-8-oxa-3,5-diaza-4-phosphadecan-1-oate 4-oxide], the “stability in human plasma (in words)” value in data set [1] is listed as “stable”. The “stability in pig plasma (in words)” value in data set [8] is “stable”. Further, in data set [2], the “stability in monkey plasma (in words)” value is reported as “stable”. The “stability in mouse plasma (in words)” value in [3] is listed as “unstable”.

`CC(C)C[C@H](N)C(=O)N[C@@H](CCC(=O)C=[N+]=[N-])C(=O)OC(C)C` [Compound 9, Isopropyl 2-(2-amino-4-methylpentanamido)-6-diazo-5-oxohexanoate]: in [9], the “stability in dog plasma (in words)” value is listed as “unstable”. In [1], the “stability in human plasma (in words)” value is given as “unstable” and the “PLASMA STABILITY Human” value was 1%. In addition, in [8], the “stability in pig plasma (in words)” value is reported as “unstable”. Also, in [2], the “stability in monkey plasma (in words)” value is on record as “unstable” and the “PLASMA STABILITY Monkey” value came out at 1%. Further, in data set [6], the “liver microsomal stability (in words)” value is reported as “moderate-high stability”. For the same molecule, in [3], the “stability in mouse plasma (in words)” value is reported as “unstable” and the “PLASMA STABILITY Mouse” value amounted to 0%. The “liver microsomal stability (in words)” value in data set [7] is “moderate-high stability”.

`CCOC(=O)[C@@H]1CCC(C=[N+]=[N-])=N1` [Compound 9a, Ethyl 5-(diazomethyl)-3,4-dihydro-2H-pyrrole-2-carboxylate]: the “chemical stability (in words)” value in data set [4] is reported as “chemically stable even at acidic pH”.

With `Cc1oc(=O)oc1COC(=O)N[C@@H](CCC(=O)C=[N+]=[N-])C(=O)OC(C)C` [Compound 13, 1-Methylethyl 6-(1λ^5-diazynylidene)-N-{[(5-methyl-2-oxo-1,3-dioxol-4-yl)methoxy]carbonyl}-5-oxo-L-norleucinate], the “PLASMA STABILITY Human” value in [1] came out at 0%. The “PLASMA STABILITY Monkey” value in data set [2] came out at 0%. The “PLASMA STABILITY Mouse” value in data set [3] was 0%.

As for `CCOC(=O)[C@@H](N)CCC(=O)C=[N+]=[N-]` [Compound 20, Ethyl 2-amino-6-diazo-5-oxohexanoate], the “chemical stability (in words)” value in data set [4] is listed as “chemical instability; also recorded: unstable”.

Take `C[C@H](N)C(=O)N[C@@H](CCC(=O)C=[N+]=[N-])C(=O)O` [Compound 23, 2-(2-Aminopropanamido)-6-diazo-5-oxohexanoic acid]: the “DON release / exposure in mouse plasma upon oral administration (in words)” value (“DON release / exposure” below) in data set [10] is listed as “little DON release”.

As for `CC(C)C[C@H](N)C(=O)N[C@@H](CCC(=O)C=[N+]=[N-])C(=O)O` [Compound 26, 2-(2-Amino-4-methylpentanamido)-6-diazo-5-oxohexanoic acid triethylammonium salt], the “DON release / exposure” value in [10] is “some release”.

For the molecule `CC(OC(=O)N[C@@H](CCC(=O)C=[N+]=[N-])C(=O)O)OC(=O)C(C)C` (some centres unmarked) [Compound 29, 6-Diazo-2-(((1-(isobutyryloxy)ethoxy)carbonyl)amino)-5-oxohexanoic acid triethylammonium salt], the “DON release / exposure” value in data set [10] is recorded as “little DON release”.

Take `CC(OC(=O)N[C@@H](CCC(=O)C=[N+]=[N-])C(=O)O)OC(=O)C(C)(C)C` (some centres unmarked) [Compound 30, 6-Diazo-2-(((1-(pivaloyloxy)ethoxy)carbonyl)amino)-5-oxohexanoic acid triethylammonium salt]: in [10], the “DON release / exposure” value is on record as “little DON release”.

For the molecule `CCOC(=O)[C@H](CCC(=O)C=[N+]=[N-])NC(=O)[C@@H](N)Cc1c[nH]c2ccccc12` [Compound 34, Ethyl 2-(2-amino-3-(1H-indol-3-yl)propanamido)-6-diazo-5-oxohexanoate], the “PLASMA STABILITY Human” value in [1] is 12%. Further, the “PLASMA STABILITY Monkey” value in data set [2] came out at 4%. For the same molecule, the “PLASMA STABILITY Mouse” value in data set [3] came to 0%.

As for `CCOC(=O)[C@H](CCC(=O)C=[N+]=[N-])NC(=O)OCc1oc(=O)oc1C` [Compound 36, Ethyl 6-diazo-2-((((5-methyl-2-oxo-1,3-dioxol-4-yl)methoxy)carbonyl)amino)-5-oxohexanoate], the “PLASMA STABILITY Human” value in data set [1] is 0%. In addition, the “PLASMA STABILITY Monkey” value in data set [2] is 0%. Further, the “PLASMA STABILITY Mouse” value in data set [3] amounted to 0%.

With `CC(C)OC(=O)[C@H](CCC(=O)C=[N+]=[N-])NC(=O)OCOC(=O)C(C)(C)C` [Compound 42, Isopropyl 6-diazo-5-oxo-2-((((pivaloyloxy)methoxy)carbonyl)amino) hexanoate], the “PLASMA STABILITY Human” value in data set [1] was found to be 9%. Also, the “PLASMA STABILITY Monkey” value in [2] is 0%. The “PLASMA STABILITY Mouse” value in data set [3] is 0%.

As for `CC(C)OC(=O)[C@H](CCC(=O)C=[N+]=[N-])NC(=O)OC(OC(=O)C(C)(C)C)c1ccccc1` (some centres unmarked) [Compound 47, Isopropyl 6-diazo-5-oxo-2-(((phenyl(pivaloyloxy)methoxy)carbonyl)amino) hexanoate], in data set [11], the “CSF delivery of DON (in words)” value was “substantially higher amounts of DON to the CSF; also recorded: enhanced CSF delivery of DON” and the “CSF:plasma ratio of DON (in words)” value is listed as “increased CSF-to-plasma ratios; also recorded: enhanced CSF:plasma ratio”.

On to `CC(=O)N[C@@H](Cc1c[nH]c2ccccc12)C(=O)N[C@@H](CCC(=O)C=[N+]=[N-])C(=O)OC(C)C` [Compound 60, Isopropyl 2-(2-acetamido-3-(1H-indol-3-yl)propanamido)-6-diazo-5-oxohexanoate], for which the “antitumor efficacy in MC38 tumor model (in words)” value with MC38 colon cancer is recorded as “promoted tumor regression”. For the same molecule, the “liver microsomal stability (in words)” value in [6] and in data set [7] was “moderate-high stability” in each case.

For `C=CCOC(=O)N[C@@H](CCC(=O)C=[N+]=[N-])C(=O)O` [LTP 073], the “DON release / exposure” value in data set [10] is listed as “below the limit of quantitation”.
